Converted amounts (≈) assume the structure as drawn.
Assay: Measurement of solubility in buffer at pH 6.5
Type: physicochemical
Conditions: aqueous buffer, kinetic from dmso stock; PBS buffer pH 6.5, shaken 24h at rt, LC-MSMS; read-out: Solubility of example compounds at pH 6.5
Description: Measurement of Solubility in Buffer at pH 6.5 2-4 mg of the test compound are dissolved in DMSO to reach a concentration of 50 g/L (solution A). To 10 μl of this solution 960 μl PBS buffer pH 6.5 are added (final concentration: 515 μg/1); the mixture is shaken for 24h at rt in a 96 well plate. An aliquot is centrifuged at 42000 rpm für 30 min. The supernatant is diluted with acetonitrile/water (8:2) 1:10 and 1:1000 resp. This diluted samples are analyzed by LC-MSMS. Calibration: 10 μl of solution A are diluted with 823 μl DMSO (final concentration: 600 μg/ml), which is further diluted with acetonitrile/water 8:2 by a factor of 100 (provides solution B). The calibration curve is obtained from solution B by further diluting with acetonitrile/water 8:2 with target concentrations of 1.2-12-60-600 ng/ml and injecting these four solutions for MS measurement. PBS-Puffer: 6.18 g sodium chloride and 3.96 g sodium dihydrogen phosphate are dissolved in 1 L aqua dist., the pH is adjusted to 6.5 with 1N sodium hydroxide. The following conditions were used for quantification: Autosampler without auto inject ahead setting, column: Waters OASIS HLB, 2,1×20 mm, 25μ, column temperature: 30° C., flow rate: 2.5 mL/min, injected volume: 2 μl, Splitter (before MS) 1:20.

Row | Compound | solubility at 24 h
1 | N#CC1(N(COC(=O)O[C@H]2CC[C@@H](C(=O)O)CC2)C(=O)c2cc(-c3cnn(-c4c(Cl)cc(C(F)(C(F)(F)F)C(F)(F)F)cc4OC(F)(F)F)c3)ccc2Cl)CC1 [Example 17, Cis-4-[({[(2-Chloro-5-{1-[2-chloro-4-(1,1,1,2,3,3,3-heptafluoropropan-2-yl)-6-(trifluoromethoxy)phenyl]-1H-pyrazol-4-yl}benzoyl)(1-cyanocyclopropyl)amino]methoxy}carbonyl)oxy]cyclohexane-1-carboxylic Acid] | 2 µg/mL (≈ 2.35 µM)
2 | N#CC1(N(COC(=O)O[C@H]2CC[C@H](C(=O)O)CC2)C(=O)c2cc(-c3cnn(-c4c(Cl)cc(C(F)(C(F)(F)F)C(F)(F)F)cc4OC(F)(F)F)c3)ccc2Cl)CC1 [Example 18, Trans-4-[({[(2-chloro-5-{1-[2-chloro-4-(1,1,1,2,3,3,3-heptafluoropropan-2-yl)-6-(trifluoromethoxy)phenyl]-1H-pyrazol-4-yl}benzoyl)(1-cyanocyclopropyl)amino]methoxy}carbonyl)oxy]cyclohexane-1-carboxylic Acid] | 3 µg/mL (≈ 3.53 µM)
3 | N#CC1(N(COC(=O)OCC(=O)O)C(=O)c2cc(-c3cnn(-c4c(Cl)cc(C(F)(C(F)(F)F)C(F)(F)F)cc4OC(F)(F)F)c3)ccc2Cl)CC1 [Example 19, [({[(2-chloro-5-{1-[2-chloro-4-(1,1,1,2,3,3,3-heptafluoropropan-2-yl)-6-(trifluoromethoxy)phenyl]-1H-pyrazol-4-yl}benzoyl)(1-cyanocyclopropyl)amino]methoxy}carbonyl)oxy]acetic Acid] | 42 µg/mL (≈ 53.8 µM)
4 | Cn1nc(C(F)(F)C(F)(F)F)c(C(F)(F)F)c1-n1cc(-c2ccc(Cl)c(C(=O)N(COC(=O)OCCCC(=O)O)C3(C#N)CC3)c2)cn1 [Example 20, 4-[({[{2-Chloro-5-[2′-methyl-5′-(pentafluoroethyl)-4′-(trifluoromethyl)-2′H-[1,3′-bipyrazol]-4-yl]benzoyl}(1-cyanocyclopropyl)amino]methoxy}carbonyl)oxy]butanoic Acid] | 212 µg/mL (≈ 297 µM)
5 | Cn1nc(C(F)(F)C(F)(F)F)c(C(F)(F)F)c1-n1cc(-c2ccc(Cl)c(C(=O)N(COC(=O)OCC(C)(C)C(=O)O)C3(C#N)CC3)c2)cn1 [Example 21, 3-[({[{2-Chloro-5-[2′-methyl-5′-(pentafluoroethyl)-4′-(trifluoromethyl)-2′H-[1,3′-bipyrazol]-4-yl]benzoyl}(1-cyanocyclopropyl)amino]methoxy}carbonyl)oxy]-2,2-dimethylpropanoic Acid] | 136 µg/mL (≈ 187 µM)
6 | Cn1nc(C(F)(F)C(F)(F)F)c(C(F)(F)F)c1-n1cc(-c2ccc(Cl)c(C(=O)N(COC(=O)O[C@H]3CC[C@H](OC(=O)/C=C/C(=O)O)CC3)C3(C#N)CC3)c2)cn1 [Example 22, Trans (2E)-4-({-4-[({[{2-chloro-5-[2′-methyl-5′-(pentafluoroethyl)-4′-(trifluoromethyl)-2′H-[1,3′-bipyrazol]-4-yl]benzoyl}(1-cyanocyclopropyl)amino]methoxy}carbonyl)oxy]cyclohexyl}oxy)-4-oxobut-2-enoic Acid] | 17 µg/mL (≈ 20.7 µM)
7 | Cn1nc(C(F)(F)C(F)(F)F)c(C(F)(F)F)c1-n1cc(-c2ccc(Cl)c(C(=O)N(COC(=O)O[C@H]3CC[C@@H](C(=O)O)CC3)C3(C#N)CC3)c2)cn1 [Example 23, Cis-4-[({[{2-Chloro-5-[2′-methyl-5′-(pentafluoroethyl)-4′-(trifluoromethyl)-2′H-[1,3′-bipyrazol]-4-yl]benzoyl}(1-cyanocyclopropyl)amino]methoxy}carbonyl)oxy]cyclohexane-1-carboxylic Acid] | 50 µg/mL (≈ 66.4 µM)
8 | Cn1nc(C(F)(F)C(F)(F)F)c(C(F)(F)F)c1-n1cc(-c2ccc(Cl)c(C(=O)N(COC(=O)O[C@H]3CC[C@H](C(=O)O)CC3)C3(C#N)CC3)c2)cn1 [Example 24, Trans-4-[({[{2-Chloro-5-[2′-methyl-5′-(pentafluoroethyl)-4′-(trifluoromethyl)-2′H-[1,3′-bipyrazol]-4-yl]benzoyl}(1-cyanocyclopropyl)amino]methoxy}carbonyl)oxy]cyclohexane-1-carboxylic Acid] | 57 µg/mL (≈ 75.7 µM)
9 | Cn1nc(C(F)(F)C(F)(F)F)c(C(F)(F)F)c1-n1cc(-c2ccc(Cl)c(C(=O)N(COC(=O)OCCCOC(=O)/C=C/C(=O)O)C3(C#N)CC3)c2)cn1 [Example 25, (12E)-1-{2-Chloro-5-[2′-methyl-5′-(pentafluoroethyl)-4′-(trifluoromethyl)-2′H-[1,3′-bipyrazol]-4-yl]phenyl}-2-(1-cyanocyclopropyl)-1,5,11-trioxo-4,6,10-trioxa-2-azatetradec-12-en-14-oic Acid] | 98 µg/mL (≈ 125 µM)
10 | Cn1nc(C(F)(F)C(F)(F)F)c(C(F)(F)F)c1-n1cc(-c2ccc(Cl)c(C(=O)N(COC(=O)OCCCOC(=O)CCC(=O)O)C3(C#N)CC3)c2)cn1 [Example 26, 1-{2-Chloro-5-[2′-methyl-5′-(pentafluoroethyl)-4′-(trifluoromethyl)-2′H-[1,3′-bipyrazol]-4-yl]phenyl}-2-(1-cyanocyclopropyl)-1,5,11-trioxo-4,6,10-trioxa-2-azatetradecan-14-oic Acid] | 96 µg/mL (≈ 122 µM)
11 | Cn1nc(C(F)(F)C(F)(F)F)c(C(F)(F)F)c1-n1cc(-c2ccc(Cl)c(C(=O)N(COC(=O)OCCOC(=O)C3(C(=O)O)CC3)C3(C#N)CC3)c2)cn1 [Example 27, 1-[10-{2-Chloro-5-[2′-methyl-5′-(pentafluoroethyl)-4′-(trifluoromethyl)-2′H-[1,3′-bipyrazol]-4-yl]phenyl}-9-(1-cyanocyclopropyl)-6,10-dioxo-2,5,7-trioxa-9-azadecanan-1-oyl]cyclopropane-1-carboxylic Acid] | 147 µg/mL (≈ 188 µM)
12 | Cn1nc(C(F)(F)C(F)(F)F)c(C(F)(F)F)c1-n1cc(-c2ccc(Cl)c(C(=O)N(COC(=O)OCCOC(=O)CCCC(=O)O)C3(C#N)CC3)c2)cn1 [Example 28, 1-{2-Chloro-5-[2′-methyl-5′-(pentafluoroethyl)-4′-(trifluoromethyl)-2′H-[1,3′-bipyrazol]-4-yl]phenyl}-2-(1-cyanocyclopropyl)-1,5,10-trioxo-4,6,9-trioxa-2-azatetradecan-14-oic Acid] | 76 µg/mL (≈ 96.8 µM)
13 | Cn1nc(C(F)(F)C(F)(F)F)c(C(F)(F)F)c1-n1cc(-c2ccc(Cl)c(C(=O)N(COC(=O)OCC(C)(C)COC(=O)CCC(=O)O)C3(C#N)CC3)c2)cn1 [Example 29, 1-{2-Chloro-5-[2′-methyl-5′-(pentafluoroethyl)-4′-(trifluoromethyl)-2′H-[1,3′-bipyrazol]-4-yl]phenyl}-2-(1-cyanocyclopropyl)-8,8-dimethyl-1,5,11-trioxo-4,6,10-trioxa-2-azatetradecan-14-oic Acid] | 35 µg/mL (≈ 43 µM)
14 | Cn1nc(C(F)(F)C(F)(F)F)c(C(F)(F)F)c1-n1cc(-c2ccc(Cl)c(C(=O)N(COC(=O)OCC(=O)O)C3(C#N)CC3)c2)cn1 [Example 30, [({[{2-Chloro-5-[2′-methyl-5′-(pentafluoroethyl)-4′-(trifluoromethyl)-2′H-[1,3′-bipyrazol]-4-yl]benzoyl}(1-cyanocyclopropyl)amino]methoxy}carbonyl)oxy]acetic Acid] | 398 µg/mL (≈ 581 µM)
15 | Cn1nc(C(F)(F)C(F)(F)F)c(C(F)(F)F)c1-n1cc(-c2ccc(Cl)c(C(=O)N(COC(=O)OCC3(C(=O)O)CC3)C3(C#N)CC3)c2)cn1 [Example 31, 1-{[({[{2-Chloro-5-[2′-methyl-5′-(pentafluoroethyl)-4′-(trifluoromethyl)-2′H-[1,3′-bipyrazol]-4-yl]benzoyl}(1-cyanocyclopropyl)amino]methoxy}carbonyl)oxy]methyl}cyclopropane-1-carboxylic Acid] | 168 µg/mL (≈ 232 µM)
16 | Cn1nc(C(F)(F)C(F)(F)F)c(C(F)(F)F)c1-n1cc(-c2ccc(Cl)c(C(=O)N(COC(=O)O[C@H]3CC[C@@H](OC(=O)/C=C/C(=O)O)CC3)C3(C#N)CC3)c2)cn1 [Example 32, Cis-(2E)-4-({-4-[({[{2-Chloro-5-[2′-methyl-5′-(pentafluoroethyl)-4′-(trifluoromethyl)-2′H-[1,3′-bipyrazol]-4-yl]benzoyl}(1-cyanocyclopropyl)amino]methoxy}carbonyl)oxy]cyclohexyl}oxy)-4-oxobut-2-enoic Acid] | 41 µg/mL (≈ 49.8 µM)
17 | N#CC1(N(COC(=O)OCC2(C(=O)O)CC2)C(=O)c2cc(-c3cnn(-c4c(Cl)cc(C(F)(C(F)(F)F)C(F)(F)F)cc4OC(F)(F)F)c3)ccc2Cl)CC1 [Example 35, 1-{[({[(2-chloro-5-{1-[2-chloro-4-(1,1,1,2,3,3,3-heptafluoropropan-2-yl)-6-(trifluoromethoxy)phenyl]-1H-pyrazol-4-yl}benzoyl)(1-cyanocyclopropyl)amino]methoxy}carbonyl)oxy]methyl}cyclopropane-1-carboxylic Acid] | 8 µg/mL (≈ 9.74 µM)
18 | N#CC1(N(COC(=O)OCCC(=O)O)C(=O)c2cc(-c3cnn(-c4c(Cl)cc(C(F)(C(F)(F)F)C(F)(F)F)cc4OC(F)(F)F)c3)ccc2Cl)CC1 [Example 36, 3-[({[(2-Chloro-5-{1-[2-chloro-4-(1,1,1,2,3,3,3-heptafluoropropan-2-yl)-6-(trifluoromethoxy)phenyl]-1H-pyrazol-4-yl}benzoyl)(1-cyanocyclopropyl)amino]methoxy}carbonyl)oxy]propanoic Acid] | 16 µg/mL (≈ 20.1 µM)
